“Also recorded” adds a separate entry of the source.
Columns and labels:
rats = assay: Galactosamine-induced liver toxicity in rats (specificity of urinary fibrinogen); type: in vivo, rat; conditions: 1.1 g/kg ip, 24 h
[1] = tested on: renal I/R injury in C57BL/6 mice; assay: 27 min bilateral renal ischemia/reperfusion (I/R) injury in mice, peptide given iv after reperfusion; type: in vivo, mouse
Description: FIG. 3 is a set of four bar graphs showing that Bβ15-42 peptide protects mice from renal ischemia/reperfusion (I/R) injury. Male C57Bl6 mice were subjected to 27 minutes bilateral renal ischemia/reperfusion injury or sham surgery and 3.6 mg/kg of Bβ15-42 peptide or random peptide was administered intravenously 1 min following reperfusion. […] Serum creatinine (SCr), blood urea nitrogen (BUN) as indicators of renal dysfunction and urinary levels of fibrinogen (Fg) and kidney injury molecule-1 (Kim-1) as indicators of kidney injury were measured at 24 and 48 h in all the groups. (n=5/group of sham, n=10/group at 24 hours and n=5/group at 48 hours).* represents p<0.05 as determined by one way ANOVA in comparison with sham mice.
Blood and urine analysis was performed as follows. At sacrifice, blood was collected from dorsal aorta in heparinized tubes. Serum creatinine (SCr) concentrations were measured using a Beckman Creatinine Analyzer II. Blood urea nitrogen (BUN) was measured spectrophotometrically at 340 nm using a commercially available kit (Thermo Scientific, Rockford, Ill.) as described before (Krishnamoorthy et al., Toxicol Sci. 2010; 118(1):298-306).
Urines were collected by placing animals in individual metabolic cages and one ml of RNAlater (Ambion, Austin, Tex.) was added to the tubes to preserve RNA. Urinary Kidney Injury Molecule-1 (Kim-1 in rats and KIM-1 in humans) was measured using previously established luminex-based assays (Vaidya et al., Nat Biotechnol. 2010; 28(5):478-485; Vaidya et al., Clinical and Translational Science. 2008; 1(3):200-208). Urinary Kim-1 in mice was measured using a luminex-based assay. Urinary N-acetyl-β-D-glucosaminidase (NAG) was measured spectrophotometrically according to the manufacturers' protocols (Roche diagnostics, Basel Switzerland). Urinary creatinine concentration was used to normalize biomarker measurements in order to account for the influence of urinary dilution on biomarker concentrations. Fibrinogen in mouse, rat and human urines was measured using a commercially available species-specific luminex assay based kit from Millipore (Billerica, Mass.).
Immunostaining, to evaluate the cellular expression profile of Fg whole protein and Fgα, Fgβ and Fgγ chains was performed as follows. Kidney tissues were perfused with cold PBS before harvesting and then fixed in formalin for 16 h and embedded in paraffin. The sections incubated overnight at 4° C. in rabbit monoclonal anti-Fibrinogen alpha (Epitomics, Burlingame, Calif.), rabbit polyclonal anti-Fibrinogen beta (ProteinTech Group, Chicago, Ill.), rabbit polyclonal anti-Fibrinogen gamma (ProteinTech Group, Chicago, Ill.), anti-rat fibrinogen (Nordic Immunological Laboratories, Tilburg, The Netherlands), anti-human fibrinogen (Sigma-Aldrich, St. Louis, Mo.) and rabbit monoclonal anti-Ki67 (Vector Laboratories, Burlingame, Calif.). The primary antibody was detected using goat anti-rabbit Cy3 labeled and donkey anti goat Cy3 labeled secondary antibodies (Jackson ImmunoResearch Laboratories, West Grove, Pa.). DAPI (Sigma Aldrich, St. Louis, Mo.) was used for nuclear staining. The tissue sections were mounted using ProLong Gold Antifade Reagent (Invitrogen, Carlsbad, Calif.). The images were captured at 100× for rats, 60× for mice and humans using NIKON Eclipse 90i fluorescence microscope.
Endotoxin free Bβ15-42 ([…]) and random peptide ([…]) were custom synthesized (Invitrogen, Carlsbad, Calif.) with 95% modification and N-terminal amine group addition and free acid modification. Bβ15-42 or random peptide (3.6 mg/kg) was administered intravenously (iv) 1 min after reperfusion following 27 min bilateral renal I/R injury in C57BL/6 mice (n=5 to 10/group). Forty male C57Bl6 wild type mice were anesthetized using pentobarbital sodium (30 mg/kg, ip) and subjected to 27 min of bilateral renal I/R surgery by the retroperitoneal approach. Sham surgery was performed with exposure of both kidneys but without induction of ischemia. […]

LLC-PK1 cells = assay: BrdU uptake (cell proliferation) of LLC-PK1 cells after mineral-oil hypoxia; type: cell-based, pig; conditions: 6 μM; 48 h post hypoxia; serum free; vs random peptide
Description: FIG. 4E is a bar graph showing cell proliferation measured by bromodeoxyuridine (5-bromo-2-deoxyuridine (BrdU) uptake, by LLC-PK1 cells, 48 h post onset of hypoxia at 450 nm wavelength. Absorbance obtained from untreated cells was taken as 100% (n=6 wells/group). * represents p<0.05 as determined by Student's t-test between the two groups.
In vitro experiments using proximal tubular epithelial cells (LLC-PK1) were also performed. The renal tubular epithelial cell line, LLC-PK1, established from pig renal cortex was obtained from ATCC (Manassas, Va.) and maintained in DMEM containing 10% FBS. Two thousand five hundred LLC-PK1 cells were plated in 96 well plate for 24 h in DMEM 10% fetal bovine serum (FBS) at which time they formed a 50% confluent monolayer in the well. They were pretreated with 6 μM of Bβ15-42 or random peptide for 6 h and were immersed in 100 μl of mineral oil on top of DMEM medium without any serum for 6 h. […] Bromodeoxyuridine (5-bromo-2-deoxyuridine (BrdU) was measured as an index of cell proliferation by incubating cells with BrdU for 2 h before harvesting and the absorbance was quantified using a spectrophotometer at 450 nm wavelength as per manufacturer's instructions (Millipore, Bellerica, Mass.). Absorbance obtained from untreated cells was taken as 100% (n=6 wells/group) and the experiment was repeated twice.

VE-Cadherin = target: T1, VE-Cadherin (Homo sapiens, UniProt P33151); conditions: disrupts interaction of Fg with VE-Cadherin on endothelial cells; cited from earlier work
T1 sequence (P33151 48-784): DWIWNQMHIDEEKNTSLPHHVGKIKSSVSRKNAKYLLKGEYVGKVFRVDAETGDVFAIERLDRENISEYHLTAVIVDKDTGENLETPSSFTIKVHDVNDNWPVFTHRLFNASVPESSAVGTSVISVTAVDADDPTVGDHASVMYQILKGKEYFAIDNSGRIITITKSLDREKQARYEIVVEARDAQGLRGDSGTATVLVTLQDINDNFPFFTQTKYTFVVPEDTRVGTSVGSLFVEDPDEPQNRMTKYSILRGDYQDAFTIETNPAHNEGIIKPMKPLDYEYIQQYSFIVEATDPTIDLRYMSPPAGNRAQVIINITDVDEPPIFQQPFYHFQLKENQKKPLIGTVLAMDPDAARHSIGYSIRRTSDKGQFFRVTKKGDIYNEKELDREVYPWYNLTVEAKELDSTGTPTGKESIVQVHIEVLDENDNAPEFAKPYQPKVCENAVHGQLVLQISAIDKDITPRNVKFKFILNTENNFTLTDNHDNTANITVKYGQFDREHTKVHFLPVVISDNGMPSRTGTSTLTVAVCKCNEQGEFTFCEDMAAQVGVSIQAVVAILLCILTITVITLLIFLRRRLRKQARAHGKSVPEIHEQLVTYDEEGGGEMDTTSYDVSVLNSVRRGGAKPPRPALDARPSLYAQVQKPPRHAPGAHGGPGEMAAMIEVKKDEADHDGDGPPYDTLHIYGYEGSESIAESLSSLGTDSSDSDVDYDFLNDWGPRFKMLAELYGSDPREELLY

[2] = tested on: myocardial infarction in animal models; conditions: suprapharmacological doses; cited from earlier work
[3] = tested on: acute lung injury in animal models; conditions: suprapharmacological doses; cited from earlier work
[4] = tested on: patients with acute myocardial infarction; conditions: phase IIa; patients whose endothelial barrier integrity had not been compromised; cited from earlier work
[5] = mean ± SEM, listed as galactosamine
[6] = 3.6 mg/kg iv, 24 and 48 h, vs random peptide
[7] = 3.6 mg/kg iv, 24 h after I/R, vs random peptide

## N[C@H]1C(O)O[C@H](CO)[C@H](O)[C@@H]1O (stereo partly drawn) [Galactosamine, galactosamine]
rats
  histopathological score kidney: 0
  histopathological score liver: 2
rats; listed as galactosamine
  histopathological score kidney: no signs of kidney structural or functional damage
  histopathological score liver: extensive hepatocellular damage
rats; mean ± SEM
  ALT: 422.8 ± 121.9 U/l
  AST: 246.0 ± 57.5 U/l
  BUN: 19.1 ± 1.1 mg/dL
  Scr: 0.5 ± 0.0 mg/dL
  kidney Fgα gene expression (FC relative to control): 1.2 ± 0.1 FC
  kidney Fgβ gene expression (FC relative to control): 1.0 ± 0.0 FC
  kidney Fgγ gene expression (FC relative to control): 0.9 ± 0.1 FC
  kidney Kim-1 gene expression (FC relative to control): 1.0 ± 0.1 FC
  urinary excretion of Fg: 26.0 ± 26.0 ng/mg Cr
rats; [5]
  ALT: significant increase
  AST: significant increase
  kidney Fgα gene expression (FC relative to control): did not lead to any increase
  kidney Fgβ gene expression (FC relative to control): did not lead to any increase
  kidney Fgγ gene expression (FC relative to control): did not lead to any increase
  urinary excretion of Fg: did not lead to any increase

## GHRPLDKKREEAPSLRPAPPPISGGGYR (synthetically generated peptides) [Bβ15-42, naturally occurring 28 amino acid long product cleaved from fibrin fragments; Fgβ chain derived peptide, custom synthesized, endotoxin free]
[1]; 3.6 mg/kg iv 1 min after reperfusion, vs random peptide
  infarct size and vascular congestion: significant reduction; also recorded: significantly smaller
[1]; [6]
  leukocyte infiltration (myeloperoxidase staining): similar
  mRNA levels of inflammatory cytokines (IL-1β, IL-6, IL-10, TNFα, ICAM) and macrophage marker (CD68) in kidney: no difference
[1]; [7]
  proximal tubular damage in the outer stripe of outer medulla (H & E histopathology): significant decrease
  reduction in kidney dysfunction measured by blood urea nitrogen (BUN): Approximately 50%
  reduction in kidney dysfunction measured by serum creatinine (SCr): Approximately 50%
  reduction in kidney proximal tubular injury measured by urinary Fg: Approximately 50%
  reduction in kidney proximal tubular injury measured by urinary kidney injury molecule-1: Approximately 50%
[1]; 24 h, vs random peptide
  number of TUNEL positive apoptotic cells in the renal medulla: similar
[1]; 48 h, p<0.05 vs random peptide
  apoptosis (TUNEL) in the renal medulla: significant decrease
[1]; 48 h, vs random peptide
  proliferative (Ki67 positive) cells in the renal medulla: significant number of cells appeared to be in a proliferative state
[1]; mice, bilateral renal I/R injury
  acute tubular injury: substantially reduced
LLC-PK1 cells
  renal epithelial cell proliferation (BrdU uptake): stimulating renal epithelial cell proliferation
VE-Cadherin
  interactions with VE-Cadherin: low affinity
[2]
  protection from myocardial infarction: protect
[3]
  protection from acute lung injury: protect
[4]
  clinical effect in acute myocardial infarction: successful protective effects

— patent US20130324469A1, “FIBRINOGEN AND KIDNEY DAMAGE” (THE BRIGHAM AND WOMEN'S HOSPITAL, INC., priority 2010, published 2013)
